Source: patent publication US6362369B1, “Phthalic acid diamide derivatives fluorine-containing aniline compounds as starting material, agricultural and horticultural insecticides, and a method for application of the insecticides” (Nihon Nohyaku Co., Ltd., priority 1997, dated 2002)

Experiments:
[1] = system: diamondback moth (Plutella xylostella); test: Insecticidal effect on diamondback moth (Test Example 1); format: in vivo; settings: for Insecticidal effect (Test Example 1), judged from mortality / Insecticidal effect, Test Example 1: diamondback moth; for Insecticidal effect (Test Example 1), judged from mortality: judged by the criterion of Test Example 1; for Insecticidal effect on diamondback moth (Test Example 1), judged grade: mortality judged according to the criterion shown in Test Example 1
In short: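 Read-out was mortality from hatched-insect counts taken 6 days after the egg-bearing cabbage seedling was immersed, graded by set criteria. Seedlings were air-dried and kept at 25° C after treatment. Groups of 10 insects, in triplicate.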

[2] = system: rice leafroller (Cnaphalocrocis medinalis); test: Insecticidal effect on rice leafroller (Test Example 3); format: in vivo; settings: 500 ppm, 25° C., humidity 70%; for Insecticidal effect (Test Example 3), judged from mortality / Insecticidal effect on rice leafroller (Test Example 3), judged grade: rice lamina dip; for Insecticidal effect (Test Example 3), judged from mortality: 4 days after inoculation; for Insecticidal effect on rice leafroller (Test Example 3), judged grade: third-instar larvae; for Insecticidal effect on rice leafroller (Test Example 3), judged grade / Insecticidal effect, Test Example 3: four days after inoculation; for Insecticidal effect, Test Example 3: rice lamina immersed
Protocol: Insecticidal effect on rice leafroller (Cnaphalocrocis medinalis)
After air-drying, the lamina was placed in a plastic Petri dish with a diameter of 9 cm whose bottom had been covered with a wetted filter paper. The lamina was inoculated with third-instar larvae of rice leafroller, after which the dish was allowed to stand in a room thermostated at 25° C. and having a humidity of 70%. Four days after the inoculation, the dead and alive were counted and the insecticidal effect was judged according to the criterion shown in Test Example 1. The test was carried out with triplicate groups of 10 insects.

[3] = third-instar larvae of rice leafroller
[4] = mortality judged by criterion of Test Example 1
[5] = rice leafroller third-instar larvae
[6] = judged by the mortality criterion of Test Example 1

Structure (SMILES)	Insecticidal effect on diamondback moth (Test Example 1), judged grade [1]	Insecticidal effect on rice leafroller (Test Example 3), judged grade [2]	Insecticidal effect, Test Example 1 [1, 4]	Insecticidal effect, Test Example 3 [2, 5]	further results
CCN(CC)C(=O)c1c(I)cccc1C(=O)Nc1ccc(OC(F)F)cc1C [compound 1555]	–	–	–	–	Insecticidal effect (Test Example 1), judged from mortality [1]: A (100); Insecticidal effect (Test Example 3), judged from mortality [2, 3]: A (100)
CC(C)NC(=O)c1c(C(=O)Nc2ccc(Cl)cc2C(F)(F)F)cccc1[N+](=O)[O-] [compound 679]	A (100)	A (100)	–	–	–
CC(C)NC(=O)c1ccccc1C(=O)Nc1ccc2c(c1)OC(F)(F)O2 [compound 1099]	–	–	A (100)	A (100)	–
Cc1ccccc1CNC(=O)c1c(Cl)cccc1C(=O)Nc1ccc(C(F)(F)C(F)(F)F)cc1C [compound 1337]	–	–	A (100)	A (100)	–
COc1ccc(NC(=O)c2c(Cl)cccc2C(=O)NC(C)C)c(C)c1 [compound 218]	–	–	–	–	Insecticidal effect, Test Example 1 [1, 6]: A (100); Insecticidal effect, Test Example 3 [2, 3]: C (89-80)
CC(C)NC(=O)c1cccc(Cl)c1C(=O)Nc1ccc(OC(F)F)cc1 [compound 200]	–	–	–	–	Insecticidal effect, Test Example 1 [1, 6]: A (100); Insecticidal effect, Test Example 3 [2, 3]: A (100)
CCCNC(=O)c1c(I)cccc1C(=O)Nc1cccc(Cl)c1C [compound 959]	–	–	A (100)	A (100)	–
CC(C)NC(=O)c1c(I)cccc1C(=O)Nc1ccc(C(F)(C(F)(F)F)C(F)(F)F)cc1Oc1ccccc1 [compound 1768]	–	–	–	–	Insecticidal effect (Test Example 1), judged from mortality [1]: A (100); Insecticidal effect (Test Example 3), judged from mortality [2, 3]: A (100)
CC(C)NC(=O)c1ccccc1C(=O)Nc1ccc2c(c1)OC(F)C(F)(F)O2 (centres unmarked) [compound 1145]	–	–	A (100)	A (100)	–
CC(C)NC(=O)c1ccccc1C(=O)Nc1ccc([S+]([O-])C(F)(F)Br)cc1 (centres unmarked) [compound 1107]	–	–	A (100)	A (100)	–
CC(C)NC(=O)c1c(C(=O)Nc2cccc(OC(F)F)c2)cccc1[N+](=O)[O-] [compound 616]	A (100)	D (79-50)	–	–	–
CCCNC(=O)c1cccc(I)c1C(=O)Nc1ccc(C(F)(C(F)(F)F)C(F)(F)F)cc1C [compound 1076]	–	–	A (100)	A (100)	–
CC(C)NC(=O)c1c(F)cccc1C(=O)Nc1ccc(SC(F)(F)C(F)F)cc1 [compound 479]	A (100)	A (100)	–	–	–
CC(C)NC(=O)c1c(Cl)cccc1C(=O)Nc1ccc([S+]([O-])C(F)(F)Br)cc1 (centres unmarked) [compound 1111]	–	–	A (100)	A (100)	–
CCCC(C)NC(=O)c1cccc(I)c1C(=O)Nc1ccc(C(F)(F)C(F)(F)F)cc1C (centres unmarked) [compound 1010]	–	–	A (100)	A (100)	–
CC(C)NC(=O)c1c(Cl)cccc1C(=O)Nc1ccc(OC(F)F)c(F)c1 [compound 137]	–	–	–	–	Insecticidal effect, Test Example 1 [1, 6]: A (100); Insecticidal effect, Test Example 3 [2, 3]: A (100)
Cc1c(NC(=O)c2cccc([N+](=O)[O-])c2C(=O)NC(C)C)ccc(OC(F)F)c1Cl [compound 717]	A (100)	A (100)	–	–	–
Cc1cc(Cl)ccc1NC(=O)c1cccc(C(=O)NC(C)C)c1C(=O)NC(C)C [compound 803]	A (100)	A (100)	–	–	–
Cc1cc(C(F)(F)C(F)(F)F)ccc1NC(=O)c1cccc(Cl)c1C(=O)NCCOc1cccc(Cl)c1 [compound 1370]	–	–	A (100)	A (100)	–
CC(C)NC(=O)c1ccccc1C(=O)Nc1ccc(C(F)(F)C(F)(F)F)cc1 [compound 889]	A (100)	A (100)	–	–	–
Cc1cc(C(F)(F)C(F)(F)F)ccc1NC(=O)c1cccc(Cl)c1C(=O)NCc1ccc(Cl)cc1 [compound 1333]	–	–	A (100)	A (100)	–
CCCN(CC)C(=O)c1c(F)cccc1C(=O)Nc1ccc(C(F)(F)C(F)(F)F)cc1Cl [compound 1584]	–	–	–	–	Insecticidal effect (Test Example 1), judged from mortality [1]: A (100); Insecticidal effect (Test Example 3), judged from mortality [2, 3]: A (100)
CC(C)NC(=O)c1ccccc1C(=O)Nc1cccc(Cl)c1Cl [compound 41]	–	–	–	–	Insecticidal effect, Test Example 1 [1, 6]: A (100); Insecticidal effect, Test Example 3 [2, 3]: A (100)

Structure (SMILES)	Insecticidal effect on diamondback moth (Test Example 1), judged grade [1]	Insecticidal effect on rice leafroller (Test Example 3), judged grade [2]	Insecticidal effect, Test Example 1 [1, 4]	Insecticidal effect, Test Example 3 [2, 5]	further results
COc1ccc(NC(=O)c2cccc([N+](=O)[O-])c2C(=O)NC(C)C)c(C)c1 [compound 688]	A (100)	A (100)	–	–	–
CC(C)NC(=O)c1cccc(F)c1C(=O)Nc1ccc(OC(F)(F)F)cc1Cl [compound 562]	A (100)	A (100)	–	–	–
Cc1cc(C(F)(F)C(F)(F)F)ccc1NC(=O)c1c(I)cccc1C(=O)NC(C)CO (centres unmarked) [compound 1465]	–	–	–	–	Insecticidal effect (Test Example 1), judged from mortality [1]: A (100); Insecticidal effect (Test Example 3), judged from mortality [2, 3]: A (100)
COc1c(C)ccc(NC(=O)c2cccc([N+](=O)[O-])c2C(=O)NC(C)C)c1C [compound 694]	A (100)	A (100)	–	–	–
Cc1cc(Br)ccc1NC(=O)c1cccc([N+](=O)[O-])c1C(=O)NC(C)C [compound 671]	A (100)	D (79-50)	–	–	–
Cc1cc(OCC(F)(F)F)ccc1NC(=O)c1cccc([N+](=O)[O-])c1C(=O)NC(C)C [compound 697]	A (100)	A (100)	–	–	–
Cc1cc(Cl)ccc1NC(=O)c1c(OC(F)F)cccc1C(=O)NC(C)C [compound 777]	A (100)	D (79-50)	–	–	–
CC(C)NC(=O)c1c(I)cccc1C(=O)Nc1ccc(C(F)(F)C(F)(F)F)cc1C(F)(F)C(F)(F)F [compound 1410]	–	–	A (100)	A (100)	–
CCN(CC)C(=O)c1c(F)cccc1C(=O)Nc1ccc(OC(F)(F)F)cc1C [compound 1527]	–	–	–	–	Insecticidal effect (Test Example 1), judged from mortality [1]: A (100); Insecticidal effect (Test Example 3), judged from mortality [2, 3]: A (100)
CCN(CC)C(=O)c1c(F)cccc1C(=O)Nc1ccc(C(F)(F)C(F)(F)F)cc1F [compound 1530]	–	–	–	–	Insecticidal effect (Test Example 1), judged from mortality [1]: A (100); Insecticidal effect (Test Example 3), judged from mortality [2, 3]: A (100)
CC(C)NC(=O)c1cccc(Cl)c1C(=O)Nc1ccc2oc(C(F)(F)F)nc2c1 [compound 255]	–	–	–	–	Insecticidal effect, Test Example 1 [1, 6]: A (100); Insecticidal effect, Test Example 3 [2, 3]: A (100)
CC(C)NC(=O)c1c(F)cccc1C(=O)Nc1ccc2c(c1)OCO2 [compound 528]	A (100)	A (100)	–	–	–
C=CC(C)(C)NC(=O)c1cccc(Cl)c1C(=O)Nc1ccc(C(F)(F)C(F)(F)F)cc1C [compound 1589]	–	–	–	–	Insecticidal effect (Test Example 1), judged from mortality [1]: A (100); Insecticidal effect (Test Example 3), judged from mortality [2, 3]: A (100)
CC(C)NC(=O)c1cccc(I)c1C(=O)Nc1ccc(SCC(F)(F)F)cc1 [compound 420]	–	–	–	–	Insecticidal effect, Test Example 1 [1, 6]: A (100); Insecticidal effect, Test Example 3 [2, 3]: D (79-50)
CCCc1cc(I)ccc1NC(=O)c1cccc(I)c1C(=O)NC(C)C [compound 952]	–	–	A (100)	A (100)	–
Cc1cccc(CNC(=O)c2cccc(Cl)c2C(=O)Nc2ccc(C(F)(F)C(F)(F)F)cc2C)c1 [compound 1340]	–	–	A (100)	A (100)	–
Cc1cc(OC(F)F)ccc1NC(=O)c1cccc([S+](C)[O-])c1C(=O)NC(C)C (centres unmarked) [compound 791]	A (100)	A (100)	–	–	–
C#CCNC(=O)c1ccccc1C(=O)Nc1ccc(C(F)(F)C(F)(F)F)cc1C [compound 1411]	–	–	A (100)	A (100)	–
CCCCNC(=O)c1cccc(I)c1C(=O)Nc1ccc(C(F)(F)C(F)(F)F)cc1C [compound 946]	–	–	A (100)	A (100)	–
CC(C)NC(=O)c1c(I)cccc1C(=O)Nc1cc(Cl)c(OC(F)F)c(Cl)c1 [compound 383]	–	–	–	–	Insecticidal effect, Test Example 1 [1, 6]: A (100); Insecticidal effect, Test Example 3 [2, 3]: A (100)
CCCN(CCC)C(=O)c1c(I)cccc1C(=O)Nc1ccc(OC(F)F)cc1C [compound 1157]	–	–	A (100)	A (100)	–
Cc1cc(OC(F)(F)F)ccc1NC(=O)c1cccc(I)c1C(=O)NC(C)(C)CO [compound 1519]	–	–	–	–	Insecticidal effect (Test Example 1), judged from mortality [1]: A (100); Insecticidal effect (Test Example 3), judged from mortality [2, 3]: A (100)
CCCCc1ccc(NC(=O)c2cccc(Cl)c2C(=O)NC(C)C)cc1 [compound 87]	–	–	–	–	Insecticidal effect, Test Example 1 [1, 6]: A (100); Insecticidal effect, Test Example 3 [2, 3]: A (100)
